Experimental data reported in patent publication US20240109910A1, “HEXAHYDRO-5,8-EPOXYCYCLOHEPTA[c]PYRAZOLE DERIVATIVES USEFUL AS MODULATORS OF THE CB1 AND / OR CB2 RECEPTORS” (JANSSEN PHARMACEUTICA NV, priority 2019, published 2024).
pEC50: −log10 of the molar value. Like-named read-outs stand apart in the source and are kept apart here.

Assays:
hCB2 receptor = hCB2 receptor (Homo sapiens, UniProt P34972); test: Agonism of CB2 by detection of cAMP using HTRF; type: cell-based; details: for Emax: normalized to DMSO and maximal activation (5 nM CP55940)
Protocol: (§1) Method for Assaying Agonism of CB1 or CB2 by Detection of cAMP Using Homogeneous Time-Resolved Fluorescence (HTRF®)
(§2) CHOP-K1 cells stably expressing the CB1 receptor (PerkinElmer, ES-110-C) or the CB2 receptor (PerkinElmer, ES-111-CF) were seeded into 384 well white TC-treated plates (Greiner 781080) at 7000 cells per well in Ham's media (Gibco #31765-035) supplemented with 10% FBS (Gibco #16000-044) and 500 μg/mL Geneticin (Gibco #10131-027) and cultured overnight. The next day, plates were washed one time in assay buffer (HBSS with Ca^2+ and Mg^2+ (Corning #21-023-CV)+20 mM HEPES (Corning #25-060-Cl) and 0.01% BSA (Sigma A2153)). In a separate compound plate (Greiner 781201-906), 50 nL of test compound or DMSO was transferred using the Echo 550 (Labcyte), then 40 μL/well of assay buffer with 0.5 mM IBMX, 2 μM Forskolin (Sigma F3917), and 0.01% BSA was added. For the CB1 assay, assay buffer was dumped from the cell plate and fresh assay buffer containing 0.5 mM IBMX (Sigma I5679) was added at 30 μL/well, and the plate was incubated for 1 hr at 37° C., 5% CO2. Following the IBMX pre-treatment step, buffer was dumped from the cell plate, and 20 μL/well of the assay buffer with test compound was transferred into the cell plate with a subsequent incubation of 20 min at room temperature. Reagents for cAMP detection (cisbio 62AM4PEJ) were prepared and subsequently transferred to the cell plate at 20 μL/well. Following a 1 hr incubation at room temperature, the plate was read on the Pherastar FX (BMG, excitation 320 nm, detection at 620 nm (donor) and 665 nm (acceptor)). The ratio of signal at 665 nm/620 nm was determined for each well in the plate. For each assay day, a cAMP standard curve was run in parallel to assess the range of response and determine the concentration of cAMP in each well. Control wells (n=16 of each) with no activation of CB1 receptor (DMSO) and maximal activation (5 nM CP55940, Sigma) were used to normalize the data and to determine signal-to-background ratio and Z′. For the CB2 assay, conditions were as described above for the CB1 assay, except that the IBMX preincubation step was not used and that the 20 min compound incubation step occurred in the incubator at 37° C., 5% CO2.
(§3) EC50 values were calculated from dose response curves by nonlinear regression analysis using PRISM software.
(§4) Representative compounds of the present invention were tested according to the procedures described in Biological Example 1 above, with results as listed in Table 3, below. If a compound was tested more than once (due to multiple samples or batches), then the value listed in Table 3 below represents the average of the measured values.

hCB1 receptor = hCB1 receptor (Homo sapiens, UniProt P21554); test: Agonism of CB1 by detection of cAMP using HTRF; type: cell-based; details: for Emax: normalized to DMSO and maximal activation (5 nM CP55940)
Protocol: as §1, §2, §3, §4

[1] = CHO cells stably expressing CB2 receptor, cAMP HTRF, forskolin-stimulated, average if tested more than once, read-out: hCB2 CHO EC50
[2] = CHO cells stably expressing CB2 receptor
[3] = CHO cells stably expressing CB1 receptor, cAMP HTRF, forskolin-stimulated, average if tested more than once, read-out: hCB1 CHO EC50
[4] = CHO cells stably expressing CB1 receptor

Sequence of hCB2 receptor (P34972 whole entry): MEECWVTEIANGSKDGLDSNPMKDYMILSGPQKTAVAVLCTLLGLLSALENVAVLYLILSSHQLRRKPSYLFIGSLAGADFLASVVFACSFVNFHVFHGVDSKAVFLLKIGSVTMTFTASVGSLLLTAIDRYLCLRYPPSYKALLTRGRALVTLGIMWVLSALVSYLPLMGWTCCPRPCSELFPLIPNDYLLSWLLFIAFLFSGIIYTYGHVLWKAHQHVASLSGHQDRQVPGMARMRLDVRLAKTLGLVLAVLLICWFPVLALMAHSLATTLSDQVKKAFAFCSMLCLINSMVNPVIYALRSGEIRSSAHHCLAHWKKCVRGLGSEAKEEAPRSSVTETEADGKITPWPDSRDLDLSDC
Sequence of hCB1 receptor (P21554 whole entry): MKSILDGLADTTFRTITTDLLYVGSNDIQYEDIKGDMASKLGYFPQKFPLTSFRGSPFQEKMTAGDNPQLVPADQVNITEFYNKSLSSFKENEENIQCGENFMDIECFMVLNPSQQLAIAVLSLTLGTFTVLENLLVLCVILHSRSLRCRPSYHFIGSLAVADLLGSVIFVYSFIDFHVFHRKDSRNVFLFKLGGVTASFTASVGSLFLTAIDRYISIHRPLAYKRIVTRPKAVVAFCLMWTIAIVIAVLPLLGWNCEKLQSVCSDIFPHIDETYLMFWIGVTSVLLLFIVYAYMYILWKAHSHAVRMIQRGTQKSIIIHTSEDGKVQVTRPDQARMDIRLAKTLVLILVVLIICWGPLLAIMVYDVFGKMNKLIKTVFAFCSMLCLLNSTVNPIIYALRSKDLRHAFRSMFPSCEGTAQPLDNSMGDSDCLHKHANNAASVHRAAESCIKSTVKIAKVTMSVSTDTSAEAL

SMILES	pEC50 (hCB2 receptor; [1])	Emax (hCB2 receptor; [2])	pEC50 (hCB1 receptor; [3])	Emax (hCB1 receptor; [4])	pEC50 (hCB2 receptor)	pEC50 (hCB1 receptor)
O=C(NC12CC(C1)C2)c1nn(-c2cnccn2)c2c1CC1CCC2O1 (stereo not drawn) [Compound 12, N-(bicyclo[1.1.1]pentan-1-yl)-1-(pyrazin-2-yl)-1,4,5,6,7,8-hexahydro-5,8-epoxycyclohepta[c]pyrazole-3-carboxamide]	9.62	99.5%	5.82	90.8%	–	–
O=C(NC12CC3CC(CC1C3)C2)c1nn(-c2cnccn2)c2c1CC1CCC2O1 [Compound 13, N-((2R,3as,5S,6as)-hexahydro-2,5-methanopentalen-3a(1H)-yl)-1-(pyrazin-2-yl)-1,4,5,6,7,8-hexahydro-5,8-epoxycyclohepta[c]pyrazole-3-carboxamide]	10.70	100%	7.78	111%	–	–
O=C(NC12CCC(CC1)CC2)c1nn(-c2cnccn2)c2c1CC1CCC2O1 (stereo not drawn) [Compound 14, N-(bicyclo[2.2.2]octan-1-yl)-1-(pyrazin-2-yl)-1,4,5,6,7,8-hexahydro-5,8-epoxycyclohepta[c]pyrazole-3-carboxamide]	10.22	100%	7.21	103%	–	–
CC(C)(C)[C@@H](CO)NC(=O)c1nn(-c2c[n+]([O-])ccn2)c2c1C[C@H]1CC[C@@H]2O1 [Compound 16, 3-((5R,8S)-3-(((S)-1-hydroxy-3,3-dimethylbutan-2-yl)carbamoyl)-5,6,7,8-tetrahydro-5,8-epoxycyclohepta[c]pyrazol-1(4H)-yl)pyrazine 1-oxide]	10.05	101%	6.45	91.3%	–	–
O=C(NC1(C(F)(F)F)CCC1)c1nn(-c2c[n+]([O-])ccn2)c2c1CC1CCC2O1 (stereo not drawn) [Compound 18, 3-(3-((1-(trifluoromethyl)cyclobutyl)carbamoyl)-5,6,7,8-tetrahydro-5,8-epoxycyclohepta[c]pyrazol-1(4H)-yl)pyrazine 1-oxide]	10.40	99.9%	6.70	90.7%	–	–
O=C(NC12CC(C1)C2)c1nn(-c2c[n+]([O-])ccn2)c2c1CC1CCC2O1 (stereo not drawn) [Compound 20, 3-(3-(bicyclo[1.1.1]pentan-1-ylcarbamoyl)-5,6,7,8-tetrahydro-5,8-epoxycyclohepta[c]pyrazol-1(4H)-yl)pyrazine 1-oxide]	10.30	100%	5.75	91%	–	–
O=C(NC12CC3CC(CC1C3)C2)c1nn(-c2c[n+]([O-])ccn2)c2c1CC1CCC2O1 [Compound 21, 3-(3-(((2R,3as,5S,6as)-hexahydro-2,5-methanopentalen-3a(1H)-yl)carbamoyl)-5,6,7,8-tetrahydro-5,8-epoxycyclohepta[c]pyrazol-1(4H)-yl)pyrazine 1-oxide]	10.70	99.9%	7.55	94.9%	–	–
O=C(NC12CCC(CC1)CC2)c1nn(-c2c[n+]([O-])ccn2)c2c1CC1CCC2O1 (stereo not drawn) [Compound 22, 3-(3-(bicyclo[2.2.2]octan-1-ylcarbamoyl)-5,6,7,8-tetrahydro-5,8-epoxycyclohepta[c]pyrazol-1(4H)-yl)pyrazine 1-oxide]	10.70	99.7%	7.31	96.5%	–	–
CC(C)(C)c1cnc(-c2nn(-c3c[n+]([O-])ccn3)c3c2CC2CCC3O2)s1 (stereo not drawn) [Compound 24, 3-(3-(5-(tert-butyl)thiazol-2-yl)-5,6,7,8-tetrahydro-5,8-epoxycyclohepta[c]pyrazol-1(4H)-yl)pyrazine 1-oxide]	10.22	97.8%	7.18	95.5%	–	–
CCC(C)(C)c1noc(-c2nn(-c3c[n+]([O-])ccn3)c3c2CC2CCC3O2)n1 (stereo not drawn) [Compound 25, 3-(3-(3-(tert-pentyl)-1,2,4-oxadiazol-5-yl)-5,6,7,8-tetrahydro-5,8-epoxycyclohepta[c]pyrazol-1(4H)-y)pyrazine 1-oxide]	10.70	99.5%	6.94	98.9%	–	–
CC(C)(C)c1noc(-c2nn(-c3c[n+]([O-])ccn3)c3c2CC2CCC3O2)n1 (stereo not drawn) [Compound 26, 3-(3-(3-(tert-butyl)-1,2,4-oxadiazol-5-yl)-5,6,7,8-tetrahydro-5,8-epoxycyclohepta[c]pyrazol-1(4H)-yl)pyrazine 1-oxide]	9.89	100%	5.31	73.3%	–	–
CC(C)(C)c1nnc(-c2nn(-c3c[n+]([O-])ccn3)c3c2CC2CCC3O2)s1 (stereo not drawn) [Compound 27, 3-(3-(5-(tert-butyl)-1,3,4-thiadiazol-2-yl)-5,6,7,8-tetrahydro-5,8-epoxycyclohepta[c]pyrazol-1(4H)-yl)pyrazine 1-oxide]	10.22	99%	6.89	94.9%	–	–
CC(C)(C)c1nnc(-c2nn(-c3c[n+]([O-])ccn3)c3c2CC2CCC3O2)o1 (stereo not drawn) [Compound 29, 3-(3-(5-(tert-butyl)-1,3,4-oxadiazol-2-yl)-5,6,7,8-tetrahydro-5,8-epoxycyclohepta[c]pyrazol-1(4H)-yl)pyrazine 1-oxide]	9.70	101%	5.62	79.3%	–	–
CC(C)(C)NC(=O)c1nn(-c2c[n+]([O-])ccn2)c2c1CC1CCC2O1 (stereo not drawn) [Compound 31, 3-(3-(tert-butylcarbamoyl)-5,6,7,8-tetrahydro-5,8-epoxycyclohepta[c]pyrazol-1(4H)-yl)pyrazine 1-oxide]	9.48	99.7%	5.84	83.2%	–	–
CC(C)(C)c1noc(-c2nn(-c3cnccn3)c3c2CC2CCC3O2)n1 (stereo not drawn) [Compound 37, 3-(3-(tert-butyl)-1,2,4-oxadiazol-5-yl)-1-(pyrazin-2-yl)-1,4,5,6,7,8-hexahydro-5,8-epoxycyclohepta[c]pyrazole]	9.66	99.2%	6.75	34.8%	–	–
CC(C)(C)c1nnc(-c2nn(-c3cnccn3)c3c2CC2CCC3O2)s1 (stereo not drawn) [Compound 38, 3-(5-(tert-butyl)-1,3,4-thiadiazol-2-yl)-1-(pyrazin-2-yl)-1,4,5,6,7,8-hexahydro-5,8-epoxycyclohepta[c]pyrazole]	–	100%	–	114%	10.40	6.55
O=C(NC12CC3CC(CC1C3)C2)c1nn(-c2ccc(F)cc2F)c2c1CC1CCC2O1 [Compound 41, 1-(2,4-difluorophenyl)-N-((2R,3as,5S,6as)-hexahydro-2,5-methanopentalen-3a(1H)-yl)-1,4,5,6,7,8-hexahydro-5,8-epoxycyclohepta[c]pyrazole-3-carboxamide]	10.10	99.1%	9.15	98%	–	–
O=C(NC[C@]12C[C@@H]3C[C@@H](C[C@@H](C3)C1)C2)c1nn(-c2ccc(F)cc2F)c2c1CC1CCC2O1 [Compound 42, N-(((3r,5r,7r)-adamantan-1-yl)methyl)-1-(2,4-difluorophenyl)-1,4,5,6,7,8-hexahydro-5,8-epoxycyclohepta[c]pyrazole-3-carboxamide]	7.99	77.1%	6.59	98.2%	–	–
